We go through 3 compounds from patent US20170112773A1, “PLASMA MEMBRANE VESICLES COMPRISING FUNCTIONAL TRANSMEMBRANE PROTEINS” (Board of Regents, the University of Texas System, priority 2015, published 2017).

The test system of one data set is recipient HeLa cells. Put plainly: Dye delivery study: CRO dye delivery to recipient cells, flow cytometry. The class given is cell-based. Particulars: 300 μM carbenoxolone. Here is the method:
The media for the blocked condition was supplemented with 300 μM carbenoxolone, prepared from a 100 mM stock in water. […] Recipient cells for the blocked condition were incubated in PBS supplemented with 300 μM carbenoxolone. Calcein red-orange-loaded vesicles were formed using calcium-free GPMV buffer. […] This ratio was estimated based on hemocytometer counts of the number of vesicles and of the number of recipient cells in a 12 well dish. […] At least 7,500 cells were analyzed for each trial.

The nature of data set [1]: in vitro. Particulars: human, MCF-7 cells.
Experimental: To test Connectosomes in a second model cell line, the assay was repeated using recipient MCF-7 cells. […] First, a control study was conducted in which the viability of a confluent monolayer of MCF-7 cells was measured 48 hours after free doxorubicin was added directly to the cell media at increasing concentrations from 10 nM to 100 μM (FIG. 4J). Next, independent cell samples were exposed to increasing concentrations of Connectosomes, which were equivalent in terms of total doxorubicin content to free doxorubicin concentrations of 180 nM, 900 nM, and 4.5 μM.
The nature of data set [2]: in vitro. The settings on record: human, HeLa cells.
Experimental: Recipient HeLa cells were plated in a 12 well plate at a density of 25,000 cells per well and a total media volume of 2 mL media per well. Seven hours before addition of the GPMVs, recipient cells received fresh media. Just before addition of the GPMVs, the recipient cells were rinsed once with 2 mL PBS and then incubated in 500 μL fresh PBS. Concentrated GPMVs were resuspended in fresh calcium-free GPMV buffer and counted using a hemocytometer. GPMVs were added to recipient cells at a ratio of approximately 1 GPMV per 2 recipient cells and incubated in the dark at 37° C. with 5% CO2 for 2 hours. […] After 24 hours, cell viability was analyzed using a trypan blue or 7-AAD permeability assay.
For the 7-AAD assay, the cells were trypsinized with 500 μL trypsin for 5 minutes at 37° C., 5% CO2. […] Five μL of 7-AAD was added to 45 μL of the resuspended cells, and analyzed using flow cytometry within three minutes of 7-AAD addition. At least 5,000 cells were analyzed for each trial. […] To determine the percentage of non-viable cells in each sample, a threshold was drawn on the flow cytometry fluorescence histograms at the minimum point between the population of cells excluding the dye and the population of cells including the dye. The percentage of cells with fluorescence above these thresholds were considered non-viable. […]
Data set [3] can be described thus: in vitro. Particulars: human, HeLa cells. This is another data set of the same source.
Experimental: Recipient HeLa cells were plated in a 12 well plate at a density of 25,000 cells per well and a total media volume of 2 mL media per well. Seven hours before addition of the GPMVs, recipient cells received fresh media. Just before addition of the GPMVs, the recipient cells were rinsed once with 2 mL PBS and then incubated in 500 μL fresh PBS. Concentrated GPMVs were resuspended in fresh calcium-free GPMV buffer and counted using a hemocytometer. GPMVs were added to recipient cells at a ratio of approximately 1 GPMV per 2 recipient cells and incubated in the dark at 37° C. with 5% CO2 for 2 hours. After incubation, the recipient cells were rinsed with 2 mL media and then incubated in 2 mL fresh media at 37° C. with 5% CO2. After 24 hours, cell viability was analyzed using a trypan blue or 7-AAD permeability assay.
For the trypan blue assay, the cells were trypsinized with 500 μL trypsin for 5 minutes at 37° C., 5% CO2. […] At least 90 cells were counted for each trial using a hemocytometer. […]
The relationship between the concentration of doxorubicin added via solution and cell viability was determined by incubating recipient HeLa cells in the specified doxorubicin concentration diluted in media from a 10 mM stock in DMSO for 24 hours. Cell viability was measured using both viability assays as described above.
Another data set relates to HeLa cells. The settings on record: 24 hours of exposure, literature; cited from earlier work.
The subject of the next data set is CEM-SS lymphocytes. Particulars: peptide concentration 0.1-1 mM, CEM-SS lymphocytes in culture; cited from earlier work.

As to `CC1(C)[C@@H](OC(=O)CCC(=O)O)CC[C@]2(C)[C@H]3C(=O)C=C4[C@@H]5C[C@@](C)(C(=O)O)CC[C@]5(C)CC[C@@]4(C)[C@]3(C)CC[C@@H]12` [carbenoxolone], the “Effect of gap junction inhibitor on CRO dye delivery by Connectosomes” value in the data set with recipient HeLa cells is on record as “significantly decreased the average recipient cell fluorescence”.

Consider `COc1cccc2c1C(=O)c1c(O)c3c(c(O)c1C2=O)C[C@@](O)(C(=O)CO)C[C@@H]3O[C@H]1C[C@H](N)[C@H](O)[C@H](C)O1` [free doxorubicin, doxorubicin], for which the cytotoxicity at 48 h, 100 µM in the data set “in vitro [1]” was 44%. For the same compound, the cytotoxicity at 24 h, 10 µM in “in vitro [2]” amounted to 45%. For the same compound, in “in vitro [3]”, the cytotoxicity at 24 h, 10 µM was determined as 44% and the cytotoxicity at 24 h, 100 µM came to 87%. In the data set on HeLa cells, the “Cytotoxic dose of doxorubicin” value is “approximately 10 μM”.

Take “SEQ ID NO:1: fusogenic peptide from influenza virus hemagglutinin HA-2”: the “Increase of anti-HIV potency of antisense oligonucleotides” value with CEM-SS lymphocytes is “up to 10 fold”.
